Here are results for six molecules from patent US20050107315A1, “Mammary-associated serum amuloid a3 promoter sequences and used for same” (Board of Regents of the University of Nebraska, priority 2001, published 2005).

The subject of series [1] is MUC2 mRNA. Kind of series: MUC2 mRNA induction in intestinal epithelial cells (MUC2 mRNA/28S rRNA ratio). To be noted: for MUC2 mRNA/28S rRNA ratio, mean: conditions favoring MUC2 expression, peptides at conditions optimized for MUC3 (50 μg/ml, 30 min), control = 100. It is filed as cell-based, human. An excerpt:
(§1) These four peptides were used in a cell culture assay designed to evaluate them for their properties of inducing mucin (MUC) mRNA production, either MUC3 or MUC2 according to the methods described by Mack et al. (Biochem. Biophys. Res. Commun. 199: 1012-1018, 1994 and Am J Physiol. Vol. 4, part 1, pg. G841-950, 1999).
MUC2 Stimulation. To address whether the N-Terminal 10 amino acid bovine colostrum-SAA peptide would stimulate mRNA synthesis for MUC2 production, intestinal epithelial cells were cultured under conditions favoring MUC2 expression rather than MUC3. All peptides were used at concentrations and conditions that were previously optimized for MUC3 stimulation. None of the peptides stimulated the production of MUC2 mRNA. […] Additionally, conditions were changed to 2× the optimum MUC3 incubation time (1 hr). […] The evidence strongly indicates specificity of function in stimulating the production of a mucin produced mainly in the small intestine (MUC3) over one produced primarily in the large intestine (MUC2).

Series [2] relates to MUC3 mRNA. Briefly: MUC3 mRNA induction in intestinal epithelial cells (MUC3 mRNA/28S rRNA ratio). It counts as cell-based, human. The note with it: for MUC3 mRNA/28S rRNA ratio, mean / MUC3 mRNA stimulation (in words): peptides at 50 μg/ml, 30 minutes at 37° C.; for MUC3 mRNA/28S rRNA ratio, mean / MUC3/28S rRNA ratio, mean: control = 100; for MUC3/28S rRNA ratio, mean: 30 min 37° C.; for MUC3 mRNA stimulation (in words): versus control.
From the text: (§2) Different mucin genes have been identified and to date, thirteen human mucin genes have been identified. However, MUC3 mucin is the predominant small intestinal mucin. It has previously been shown that the MUC3 mucins are effective in preventing the adherence of enteropathogenic Escherichia coli (EPEC) to intestinal epithelial cells. […] It is also well known that breast-feeding infants are far less susceptible to infectious diarrhea than formula fed infants. There are a number of theories why this is so, but it is hypothesized that milk-associated amyloid (colostrum SAA) may be an important inducer of MUC3 gene expression. Applicant has evaluated MUC3 mRNA expression using an in vitro human cell culture assay system. […] To further explore this finding, Applicant has evaluated the functional specificity of the N-terminal peptide sequence of colostrum SAA by evaluation of MUC3 expression in the same in vitro assay using colostrum SAA N-terminal peptide sequences that have been randomly scrambled and a colostrum SAA peptide sequence downstream of the N-terminal sequence. If the expression of MUC3 is increased then intestinal cells grown in the presence of colostrum SAA should have a greater capacity to inhibit adherence of bacterial pathogens. This was studied (FIG. 2B) using EPEC in an in vitro assay system pre-incubated with colostrum SAA in the cell culture medium. Enteropathogenic E. coli are non-invasive, non-toxin producing pathogens that have been recognized as a significant cause of diarrhea in third world countries and in day care settings in developed countries. Future studies will evaluate the benefits of colostrum SAA in in vivo studies as well as characterized animal equivalent to human EPEC. Colostrum associated SAA provides a means to naturally upregulate the innate protective mechanisms of the human intestine and would provide a novel form of therapy to a common problem that occurs all too often in the third world leads to death of infants and in the developed world countries and leads to significant morbidity and cost. Thus, this is an effective, natural, non-drug/chemical therapy for all infectious diarrhea.
as §1
Intestinal epithelial cells, Mack et al. 1994, 1999, were exposed to the N-terminal 10 amino acid bovine colostrum-SAA peptide at various concentrations for 30 minutes incubation at 37° C. The cells were incubated an additional hour following replacement of the test medium with fresh medium without peptide and then the total cellular mRNA isolated and analyzed for MUC3 specific mRNA.
MUC3 stimulating activity of the N-terminal 10 amino acid bovine colostrum-SAA peptide was compared to the activity of the “Limited Scramble”, the “Total Scramble” and “C-Terminal peptides”. Optimum time and temperature of incubation and concentration of peptides was for 30 minutes at 37° C. at 50 μg/ml respectively.

In series [3] the test system is EPEC adherence to HT29 human intestinal cells. Briefly: Inhibition of EPEC adherence to HT29 cells (FIG. 4B). It is filed as cell-based, enteropathogenic Escherichia coli. The note with it: before 10^6 CFU/well EPEC, 3 h incubation, P<0.03. The procedure: FIG. 4B is a graph showing the comparative inhibition of EPEC adherence to HT29 human intestinal cells grown in a glucose-free galactose-containing cell culture medium to enhance MUC3 expression. Each well received either 10^9 CFU of the probiotic L. rhamnosus strain GG (LrGG), a single dose (1×) of the 10-mer peptide at 50 μg/mL (LS, Bov50, or Hum50) or at 250 μg/mL (Bov250 or Hum250), or two separate doses (2×) at 1 h intervals of the 10-mer peptide at 250 μg/mL. Samples were incubated at 37° C. with the HT29 cells for either a total of 1 h (single dose, 1×) or 2 h (two doses, 2×) prior to the addition of 10^6 CFU/well of EPEC. After a 3 h incubation, EPEC adherent to the HT29 cells were quantified by determining CFU/well. Results are expressed as means ±SEM of 2-6 independent experiments run in triplicate. Amino acid sequences for the 10-mer peptides are detailed in Table 1 referred to on page 37.
as §2, with “Colostrum associated SAA provides a means to naturally upregulate the innate protective mechanisms of the human intestine and would provide a novel form of therapy to a common problem that occurs all too often in the third world leads to death of infants and in the developed world countries and leads to significant morbidity and cost. Thus, this is an effective, natural, non-drug/chemical therapy for all infectious diarrhea.” left out

A short description of series [4]: Isoelectric focusing / 2-D gel of SAA preparations. It counts as physicochemical, bovine. An excerpt:
The PROTEIN IEF Cell (BioRad) was used for the isoelectric focusing of the various SAA preparations. Ready Strip IPG Strips (BioRad Laboratories) with a pH range of 3-10 were used for the IEF. The second dimension (2-D) of the protein analysis was done by subjecting the IPG strips to 12% SDS-PAGE gel and electroblotting onto a PVDF membrane. The strips and blots were done in duplicate so that one of the blots could be stained with a protein stain, Coomassie Brilliant Blue, (CBB) and the other stained with the anti-SAA monoclonal antibody for the identification of the SAA protein isoforms. The samples also contained internal IEF standards (BioRad Laboratories) so that isoelectric point (pI) of each SAA isoforms could be determined. By comparing the antibody stained spots to the spots of the standards stained with CBB the apparent pI of the SAA isoforms could be determined. All of these procedures were done according to the protocol recommended by the manufacturer.
The proteins subjected to the IEF and 2-D analysis were either affinity purified as described for the cell culture fluid or, in the case of the serum only semi-purified by hydrophobic chromatography. SAA is a highly hydrophobic molecule and will bind readily to Octyl Sepharose beads and then under the appropriate conditions can be eluted off the matrix. Briefly, serum with an elevated SAA level was tumbled for one hour with an equal volume of Octyl Sepharose CL-4B gel to allow for hydrophobic binding of the proteins from the serum to the gel. […]
The PROTEIN IEF Cell (BioRad) was used for the isoelectric focusing of the MAA preparations. […] Ready strip IPG Strips (BioRad Laboratories) with a pH range of 3-10 and 7-10 were used for the IEF. […] By comparing the spots stained with the antibody on the blot of the 2D gel from the MAA purified from colostrum and the MAA from the culture fluid of MAC-T cells stimulated with LPS, the similarities of the isoforms could be determined. Each sample was first analyzed on a pH 3-10 IPG strip for the first dimension of separation and then a subsequent sample analyzed on a pH 7-10 IPG strip.

In the case of “SAADAAQRGPQQA [C-terminal, control 10 amino acid peptide in which the first 7 were from residues 62-69 of bovine SAA, reference compound]”, the “MUC2 mRNA/28S rRNA ratio, mean” value in series [1] was 67.500. Further, the “MUC3 mRNA/28S rRNA ratio, mean” value in series [2] worked out at 111.333.
Regarding MWGTFLKEAG [N-terminal], the “EPEC adherence to HT29 cells relative to untreated cells (in words)” value in series [3] (10-mer peptide at 50 μg/mL) and in series [3] (10-mer peptide at 250 μg/mL) was “significantly decreased adherence of EPEC” throughout. In addition, the “MUC2 mRNA stimulation (in words)” value in series [1] (100 and 500 μg/ml, and 2× incubation time (1 hr)) is “None of these changes resulted in MUC2 mRNA increase over control values”; in series [1] (concentrations and conditions optimized for MUC3 stimulation) it was “not significantly different”. For the same molecule, in series [1], the “MUC2 mRNA/28S rRNA ratio, mean” value is reported as 101.167. Also, the “optimum concentration for MUC3 mRNA stimulation” value in series [2] (30 minutes incubation at 37° C.) worked out at 50 µg/mL. In addition, the “MUC3/28S rRNA ratio, mean” value in series [2] (peptide concentration 1 (μg/ml)) came to 105.429; in series [2] (peptide concentration 10 (μg/ml)) it was 105.857; in series [2] (peptide concentration 25 (μg/ml)), 145.000; in series [2] (peptide concentration 50 (μg/ml)), 220.500; in series [2] (peptide concentration 100 (μg/ml)), 103.125. Further, in series [2], the “MUC3 mRNA/28S rRNA ratio, mean” value turned out to be 174.833. Further, the “MUC3 mRNA stimulation (in words)” value is on record as “increased MUC3 mRNA expression” in series [2] and “the only peptide that stimulated MUC3 mRNA statistically significantly over the control values” in series [2] (listed as N-Terminal).
On to “MWGLTKFEAG [Limited Scramble, Bovine MAA with TFLK motif scrambled]”, for which the “MUC2 mRNA/28S rRNA ratio, mean” value in series [1] turned out to be 87.167. In series [2], the “MUC3 mRNA/28S rRNA ratio, mean” value amounted to 95.000 and the “MUC3 mRNA stimulation (in words)” value is given as “lack of stimulation”.
As for “GKFAWEGMTL [Total Scramble, control peptide, amino acids of the entire N-Terminal peptide arranged in random order, reference compound]”, the “MUC2 mRNA/28S rRNA ratio, mean” value in series [1] is 65.833. In addition, the “MUC3 mRNA/28S rRNA ratio, mean” value in series [2] worked out at 109.333.
For GWLTFLKAAG [Hum], the “EPEC adherence to HT29 cells relative to untreated cells (in words)” value in series [3] (10-mer peptide at 50 μg/mL) and in series [3] (10-mer peptide at 250 μg/mL) was “significantly decreased adherence of EPEC” in each case.

B1: colostrum-SAA: bovine mammary-associated serum amyloid A 3, purified from colostrum or MAC-T cell culture fluid (protein)
chain: QRWGTFLKEAGQGAKDMWRAYQDMKEANYRGADKYFHARGNYDAARRGPGGAWAAKVISNARETIQGITDPLFKGMTRDQVREDSKADQFANEWGRSGKDPNHFRPAGLPDKY
Consider B1, for which the pI result was “greater than 8” in series [4] (from both colostrum and MAC-T cell culture fluid (prolactin), pH 3-10 IPG strips); 9.4-9.6 in series [4] (purified from culture fluid of MAC-T cells stimulated with LPS, only one isoform, pH 3-10 and 7-10 IPG strips). For the same molecule, the “apparent pI” value in series [4] (pH 3-10 IPG strips, internal IEF standards) was 9.4-9.6.
